# Measurements from patent publication US4066635A, “L-Pyroglutamyl-L-histidyl-L-prolyl-beta-alaninamide and salts” (Hoffmann-La Roche Inc., priority 1976, dated 1978).
# Non-standard residues stand in square brackets, D forms with d. Residues, ends and D or L forms follow the SMILES beside them. pGlu = O=C1CC[C@@H](C(=O)O)N1; βAla = NCCC(=O)O
# Assays:
# [1] = system: noradrenalin (NA) in the entire brain of male mice; assay: Lowering of noradrenalin (NA) in entire brain of mice after FLA 63 (FLA 63-induced NA-lowering); format: in vivo, mouse
# Procedure: The action of antidepressants can be explained by the fact that such substances normalise the activity of noradrenergic neurones in the brain, this activity being altered in the case of depressive illness. […] If a test substance has NA-liberating action, then this manifests itself in an intensification of the FLA63-induced NA-lowering.
# In order to determine the antidepressant action of the compound of formula I hereinbefore, the lowering of NA in the entire brain of male mice was determined 90 minutes after the i.p. injection of FLA 63 (5 mg/kg).
# mice = assay: Locomotor activity in mice; format: in vivo, mouse
# [2] = Toxicity (LD 10, LD 50) in the mouse; format: in vivo; settings: in vivo, iv
# mouse = assay: Toxicity (LD 10, LD 50) in the mouse; format: in vivo; settings: p.o.
smiles,measurement,setting,value
"NC(=O)CCNC(=O)[C@@H]1CCCN1C(=O)[C@H](Cc1c[nH]cn1)NC(=O)[C@@H]1CCC(=O)N1 [compound of formula I, L-pyroglutamyl-L-histidyl-L-prolyl-β-alaninamide] ([pGlu]HP[βAla]-NH2)",Noradrenalin (%),"[1]; FLA 63 5 mg/kg i.p. plus test substance injected simultaneously, 90 minutes, entire brain, male mice, FLA 63 alone = 100%",82.2 ± 2.6%
same,liberation of NA in the brain of mice (in words),[1]; mice,increases the liberation of NA
same,FLA 63-induced NA-lowering (in words),"[1]; simultaneous injection with FLA 63 (5 mg/kg i.p.), 90 minutes, male mice",significant acceleration of the FLA 63-induced NA-lowering
same,locomotor activity in mice (in words),mice,increase in the locomotor activity
same,LD50,[2],> 4000 mg/kg
same,LD 10,mouse,above 8 g/kg
